Assay results taken from US10166217B2, “Fungal keratitis prophylactic or therapeutic agent” (SANTEN PHARMACEUTICAL CO., LTD., priority 2015, dated 2019).

Tested on: C. albicans
Test: Test to evaluate pharmacological effect of rapamycin on animal (rabbit) model of keratomycosis
Format: in vivo, New Zealand white rabbit
Experimental: Test to evaluate pharmacological effect of rapamycin on animal (rabbit) model of keratomycosis
4% (w/w) rapamycin solution: This sample was prepared by dissolving rapamycin (Chunghwa Chemical Synthesis & Biotech Co., Ltd.) in a solution containing 4% (w/w) ethanol and […] polyethylene glycol 400.
About 10 μL of a C. albicans solution (1×10^4 CFU/mL to 5×10^4 CFU/mL) was administered to the central corneal stroma of the right eye of a male New Zealand white rabbit of about 3 kg, and thereby an animal (rabbit) model of keratomycosis was prepared (Cornea, Volume 26, Number 3, 336-342, April 2007).
For a base administered group (Group 1; N=4), 20 μL of a base (a solution containing 4% (w/w) ethanol and 96% (w/w) polyethylene glycol 400) was administered subconjunctivally on the day of induction.
For a rapamycin administered group (Group 2; N=4), 20 μL of a 4% (w/w) rapamycin solution (0.88 mg rapamycin) was administered subconjunctivally on the day of induction.

For `CO[C@H]1C[C@@H]2CC[C@@H](C)[C@@](O)(O2)C(=O)C(=O)N2CCCC[C@H]2C(=O)O[C@H]([C@H](C)C[C@@H]2CC[C@@H](O)[C@H](OC)C2)CC(=O)[C@H](C)/C=C(\C)[C@@H](O)[C@@H](OC)C(=O)[C@H](C)C[C@H](C)/C=C/C=C/C=C/1C` [rapamycin], the “clinical scores (McDonald-Shadduck scoring system, slit lamp)” value (20 μL of 4% (w/w) rapamycin solution (0.88 mg rapamycin), single subconjunctival administration on day of induction, right eye, post-induction days 2 and 5, compared with base administered group, N=4) was “lower than those of the base administered group” and the “duration for which remarkable therapeutic effect on keratomycosis is maintained” value (single subconjunctival administration of an injection containing rapamycin, polyethylene glycol and ethanol, rabbit C. albicans keratomycosis model) was “at least 5 days”.
